Tests used:
[1] = target: T1, HSA (Homo sapiens, UniProt P02768); assay: Fluorescence quenching of HSA by G-Rh2; format: binding; settings: for KSV: HSA 1 μM, pH 7.4; for Kd: K (binding constant)
[2] = system: HepG2 cells; assay: MTT assay, cytotoxic activity with or without serum albumin; format: cell-based; settings: HepG2, 7.5 μg/mL, 48 h
[3] = general statement; cited from earlier work
[4] = system: PARP cleavage in HepG2 cells; assay: Immunoblotting of PARP cleavage; format: cell-based; settings: HepG2, 7.5 μg/mL, BSA or bovine serum, 4 h
[5] = target: T2, BSA (Bos taurus, UniProt P02769); assay: Fluorescence quenching of BSA by G-Rh2; format: binding, bovine; settings: for KSV: BSA 1 μM, pH 7.4; for Kd: K (binding constant)
T2 sequence (P02769 25-607): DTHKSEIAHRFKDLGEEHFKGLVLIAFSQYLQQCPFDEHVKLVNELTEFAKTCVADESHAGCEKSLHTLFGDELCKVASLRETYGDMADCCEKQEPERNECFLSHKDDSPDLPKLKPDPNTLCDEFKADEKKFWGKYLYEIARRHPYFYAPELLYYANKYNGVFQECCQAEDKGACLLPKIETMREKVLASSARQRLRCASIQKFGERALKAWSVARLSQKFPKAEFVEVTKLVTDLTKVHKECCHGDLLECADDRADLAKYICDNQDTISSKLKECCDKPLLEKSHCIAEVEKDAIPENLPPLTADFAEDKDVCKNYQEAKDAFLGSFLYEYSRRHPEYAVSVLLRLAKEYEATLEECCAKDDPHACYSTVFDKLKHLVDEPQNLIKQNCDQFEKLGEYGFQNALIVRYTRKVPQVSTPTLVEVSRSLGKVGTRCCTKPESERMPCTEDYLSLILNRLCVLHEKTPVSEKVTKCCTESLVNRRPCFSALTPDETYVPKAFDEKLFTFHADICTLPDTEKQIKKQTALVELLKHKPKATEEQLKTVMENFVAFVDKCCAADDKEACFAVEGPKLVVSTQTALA

[6] = target: T2, BSA; assay: UV-Vis absorption spectra of BSA with G-Rh2; format: binding, bovine; settings: BSA 25 μM, G-Rh2 50 μM, 298K, pH7.4
[7] = target: T1, HSA; assay: UV-Vis absorption spectra of HSA with G-Rh2; format: binding; settings: HSA 25 μM, G-Rh2 50 μM, 298K, pH7.4

T1 sequence (P02768 25-609): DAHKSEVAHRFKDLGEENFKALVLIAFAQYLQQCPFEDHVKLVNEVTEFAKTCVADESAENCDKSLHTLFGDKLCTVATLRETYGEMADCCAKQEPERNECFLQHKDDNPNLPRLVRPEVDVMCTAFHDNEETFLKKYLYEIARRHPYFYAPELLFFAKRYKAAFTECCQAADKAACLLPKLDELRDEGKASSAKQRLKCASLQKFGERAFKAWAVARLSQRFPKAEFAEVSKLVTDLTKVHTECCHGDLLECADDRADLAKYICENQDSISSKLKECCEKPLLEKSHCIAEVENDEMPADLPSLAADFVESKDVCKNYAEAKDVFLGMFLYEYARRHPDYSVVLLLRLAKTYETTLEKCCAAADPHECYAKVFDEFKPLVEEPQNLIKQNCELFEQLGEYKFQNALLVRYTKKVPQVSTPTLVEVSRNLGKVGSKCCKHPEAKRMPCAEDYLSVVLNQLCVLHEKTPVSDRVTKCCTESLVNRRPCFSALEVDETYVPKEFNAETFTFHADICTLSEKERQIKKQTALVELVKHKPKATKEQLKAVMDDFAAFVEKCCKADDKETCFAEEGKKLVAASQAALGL

## CC(C)=CCC[C@](C)(O)[C@H]1CC[C@]2(C)[C@@H]1[C@H](O)C[C@@H]1[C@@]3(C)CC[C@H](O[C@@H]4O[C@H](CO)[C@@H](O)[C@H](O)[C@H]4O)C(C)(C)[C@@H]3CC[C@]12C [(20R) G-Rh2, Ginsenoside Rh2]
[1]; 298 K
  KSV: 4.5120 10^4 M^−1
[1]; 303 K
  KSV: 6.9016 10^4 M^−1
[1]; 308 K
  KSV: 7.2751 10^4 M^−1
[1]; HSA, 298 K
  kq: 4.5120 10^12 M^−1 s^−1
  n (number of binding sites): 1.131
  Kd: 4.85 µM
[1]; HSA, 303 K
  kq: 6.9016 10^12 M^−1 s^−1
  n (number of binding sites): 1.0626
  Kd: 6.89 µM
[1]; HSA, 308 K
  kq: 7.2751 10^12 M^−1 s^−1
  n (number of binding sites): 1.0284
  Kd: 11.5 µM

## CC(C)=CCC[C@](C)(O)[C@H]1CC[C@]2(C)[C@@H]1[C@H](O)C[C@@H]1[C@@]3(C)CC[C@H](O[C@@H]4O[C@H](CO)[C@@H](O)[C@H](O)[C@H]4O)C(C)(C)[C@@H]3CC[C@]12C [(20S) G-Rh2, Ginsenoside Rh2]
[2]; increased concentration of albumin by adding HSA, BSA or bovine serum
  Cell viability: significantly increased in an albumin-dose-dependent manner
[2]; without SA
  Cell viability: killed almost all cells
[3]
  water solubility: very low
[1]; 298 K
  KSV: 4.9578 10^4 M^−1
[1]; 303 K
  KSV: 6.5117 10^4 M^−1
[1]; 308 K
  KSV: 7.2510 10^4 M^−1
[1]; HSA, 298 K
  kq: 4.9578 10^12 M^−1 s^−1
  n (number of binding sites): 1.2027
  Kd: 1.83 µM
[1]; HSA, 303 K
  kq: 6.5117 10^12 M^−1 s^−1
  n (number of binding sites): 1.1449
  Kd: 2.86 µM
[1]; HSA, 308 K
  kq: 7.2510 10^12 M^−1 s^−1
  n (number of binding sites): 1.0786
  Kd: 5.39 µM
[1]; HSA, temperature not stated, listed as (20S)-Rh2
  number of binding site: 1
[4]; with 1.68mg/mL albumin by adding HSA
  PARP cleavage: totally inhibited PARP cleavage
[4]; without HSA
  PARP cleavage: caused the cleavage of poly-adenosine diphosphate-ribose polymerase (PARP)
[5]; 298 K
  KSV: 7.3470 10^4 M^−1
[5]; 303 K
  KSV: 11.6703 10^4 M^−1
[5]; 308 K
  KSV: 9.2848 10^4 M^−1
[5]; BSA, 298 K
  kq: 7.3470 10^12 M^−1 s^−1
  n (number of binding sites): 1.1329
  Kd: 2.77 µM
[5]; BSA, 303 K
  kq: 11.6703 10^12 M^−1 s^−1
  n (number of binding sites): 1.0192
  Kd: 7.01 µM
[5]; BSA, 308 K
  kq: 9.2848 10^12 M^−1 s^−1
  n (number of binding sites): 0.9702
  Kd: 15.5 µM
[5]; BSA, temperature not stated (abstract)
  number of binding site: 1

## CC(C)=CCC[C@](C)(O)[C@H]1CC[C@]2(C)[C@@H]1[C@H](O)C[C@@H]1[C@@]3(C)CC[C@H](O[C@@H]4O[C@H](CO)[C@@H](O)[C@H](O)[C@H]4O)C(C)(C)[C@@H]3CC[C@]12C [G-Rh2, Ginsenoside Rh2]
[6]
  UV-Vis absorption of protein on adding G-Rh2: significantly increased with a slight blue shift of the maximum absorption wavelength
[7]
  UV-Vis absorption of protein on adding G-Rh2: significantly increased with a slight blue shift of the maximum absorption wavelength
